Reference: patent USRE49311E1, “Bacillus thuringiensis RTI545 compositions and methods of use for benefiting plant growth and controlling plant pests” (priority 2016, dated 2022)

What was measured:
[1] = test system: root knot (RKN) nematode juveniles (J2); experiment: Nematode chemotaxis assay on agar plates; type: in vivo, Meloidogyne spp.; settings: for Cf (chemotaxis factor) at 3 h / Cf (chemotaxis factor) at 5 h: Cf<0.5 repellent, >2 attractant
Description: Similarly, activity of RTI545 against nematodes may also be due to compound(s) produced by the strain. A nematode chemotaxis assay on agar plates was conducted as described below to evaluate response of root knot (RKN) nematode juveniles (J2) to different concentrations of kanosamine and RTI545 supernatant in vitro.
The test arena is shown schematically in FIG. 6. Nine-cm-diameter Petri dishes were filled with 15 ml 0.75% Phytagel (including 0.1% MgSO4.7H2O). […] was used, instead of water agar, so that nematode tracks could be observed under a microscope. Wells of 0.5 cm diameter which can accommodate approximately 50 μl of solution were made at opposite sides of the dishes at 2 cm from the center. The test samples were applied in the wells and left to diffuse for 1 hour with lids on the dishes, so a gradient around the wells could be established. Then, 75-100 J2 stage root-knot nematodes suspended in 5 μl of sterile distilled water were placed by pipette in the center 1.5 cm-diameter circle of the plate. When the surface tension of the water suspension was lost, the dishes were covered with lids and incubated in the dark on a leveled platform at 25° C. for […]. After incubation the plates were transferred to 4° C. to stop nematode movement for scoring at 2 h, 3 h and 5 h after setup. Three replicates were done for each test material.
For scoring, the test arena was divided into sixteen zones, designated as 1-8 for attractive zones and a-h for repellent zones as shown in FIG. 6A. Nematodes attracted to the test substance would tend to move to the numbered (attractive) zones, resulting in clustering along the axis parallel to the orientation of the wells. Repelled nematodes would tend to move to the lettered (repellant) zones, resulting in clustering along the axis perpendicular to the orientation of the wells. The chemotaxis factor (Cf) was calculated by dividing the total number of nematodes in the attractant zones by the total number of nematodes in the repellent zones. A Cf greater than 2 meant attraction for the nematodes, while lower than 0.5 indicated repellence, and 0.5 to 2 was considered neutral.

[2] = test system: root knot nematode (RKN) eggs; experiment: Root knot nematode egg hatching assay, 24-well plates; type: in vivo, Meloidogyne incognita/hapla; settings: for % Hatching after 7 days / % Hatching after 14 days: mean of 6 replicates ± SD
Description: The following day, the optical density (OD) of 1:100 dilutions was measured at 600 nm to estimate the volume needed for inoculation of fermentation flasks. […] Bacteria were grown overnight (for 16 h) at 200 rpm at 30° C. Two ml of bacterial culture was saved to measure the OD and colony forming units (CFU). The remaining culture was centrifuged (2500 rpm, 15 min) and the supernatant was filter-sterilized through a 0.22 μm filter. […] The supernatant was kept at 4° C. until the initiation of the bioassay. […] A mixed culture of root knot nematodes (Meloidogyne incognita and M. hapla) was used. Nematode eggs were extracted from tomato roots by bleaching and cleaned using an Opti-prep centrifugation step followed by two washes in water. Before setting up the hatching assay, the percentage of early (eggs with a visible embryo) and late eggs (eggs with differentiated juveniles inside; […] Only fresh eggs (collected at the day of the initiation of the assay) were used for the bioassay. The assay was performed in 24-well tissue culture plates. […] Antibiotics were suspended in sterile distilled water. The final concentration of antibiotics in testing plates was 75 mg/L of penicillin and 75 mg/L of streptomycin. […] The addition of methyl cellulose increases the accuracy of adding the same number of inoculum to each treatment. The treatments were set up in 6 replications. Each plate was covered, wrapped in aluminum foil and placed in an incubator set at 25° C. […] For each time point and treatment, the percent hatching was calculated according to the formula: […] All treatments were supplemented with antibiotics (75 mg/L of penicillin and 75 mg/L of streptomycin) to prevent contamination. Data are means from 6 replicates± standard deviation of the means.

[3] = test system: Southern Corn Rootworm (SCRW) larvae; experiment: SCRW larvae choice feeding assay of corn seedlings; settings: for Mean percent of SCRW larvae on treated portion of the filter paper / Mean percent of SCRW larvae on untreated portion of the filter paper: 3 days
Description: Repellency was measured using a choice in vitro plate feeding assay of corn seedlings by SCRW larvae and scored after 72 hours as the percentage of SCRW larvae on the non-treated side of the plate. In the case of no repellency, an equal distribution of 50% on both the treated and non-treated half of the plate would be expected, indicating 0% repellency. In this experiment, the Bacillus thuringiensis RTI545 and Bacillus thuringiensis subsp. kurstaki HD-1 (HD-1), were evaluated in comparison to a water control after 3 days in the assay.
The choice feeding assay for SCRW larvae using corn seedlings was also repeated to compare RTI545 to another Bacillus thuringiensis strain FD30 and kanosamine. […] Repellency was measured using a choice in vitro plate feeding assay of corn seedlings by SCRW larvae and scored after 72 hours as the percentage of SCRW larvae on the non-treated side of the plate. In the case of no repellency, an equal distribution of 50% on both the treated and non-treated half of the plate would be expected, indicating 0% repellency.

lesion nematode = experiment: Soil drench tests against lesion nematode; type: in vivo, Pratylenchus penetrans
Text: Similar tests wherein RTI545 was applied as a soil drench at the rate of 2.5×10^11 CFU/ha provided 71% reduction in lesion nematode numbers per root compared to 95% for abamectin. In soil drench tests applied to pots in the greenhouse with soil infested with lesion nematode eggs and adults (2000 individuals/pot) RTI545 at the rate of 2.5×10^13 CFU/ha provided 80% reduction in nematode numbers per root compared to 86% reduction by cadusafos.

[4] = test system: soybean cyst nematode (Heterodera glycines); experiment: Soybean cyst nematode soil drench assay, greenhouse; type: in vivo; settings: day 70
[5] = test system: wireworm (Melanotus spp.); experiment: In-furrow corn field trials, wireworm-infested plots (7 trials, North America); type: in vivo; settings: vs untreated, average of 7 trials; bifenthrin 56 g ai/Ha, RTI545 3 × 10^11 CFU/Ha, tefluthrin 168 g ai/Ha
Text: (§1) In-furrow treatments of corn with RTI545 were studied in multiple field trials in various locations in North America to evaluate effectiveness against wireworm (Melanotus spp.) and corn rootworm (Diabrotica spp.). The effects on yield and crop damage of several treatments compared to untreated controls for the individual North America trials were aggregated and summarized as an average for the trial in the following tables as % yield increase and % reduction in damage compared to the untreated controls. Seven trials were evaluated for wireworm. Eighteen trials were evaluated for corn rootworm. Five trials with heavy damage from corn rootworm were averaged separately.

[6] = test system: corn rootworm (Diabrotica spp.); experiment: In-furrow corn field trials, corn rootworm-infested plots (18 trials, North America); type: in vivo; settings: vs untreated, bifenthrin 112 g ai/Ha, RTI545 1.24 × 10^12 CFU/Ha, tefluthrin 168 g ai/Ha; for % Damage reduction, Heavy CRW Pressure / % Yield Increase, Heavy CRW Pressure: 5 trials; for % Damage reduction / % Yield Increase: 18 trials
Text: as §1

[7] = kanosamine 100 μg/ml (alone or + FD30)
[8] = RTI545 2.5 × 10^12 CFU/ha, Abamectin 0.01 ppm, VENERATE XC 500 mg/plant
[9] = RTI545 2.5 × 10^13 CFU/ha, Abamectin 0.1 ppm

Molecule: kanosamine
- Cf (chemotaxis factor) ([1]; all tested kanosamine rates (1, 10 and 100 μg/ml) and all time points): higher than 0.5
- Cf (chemotaxis factor) at 3 h ([1]; kanosamine 1 μg/ml): 1.0
- Cf (chemotaxis factor) at 5 h ([1]; kanosamine 1 μg/ml): 1.0
- Cf (chemotaxis factor) at 3 h ([1]; kanosamine 10 μg/ml): 0.6
- Cf (chemotaxis factor) at 5 h ([1]; kanosamine 10 μg/ml): 0.7
- Cf (chemotaxis factor) at 3 h ([1]; kanosamine 100 μg/ml): 0.6
- Cf (chemotaxis factor) at 5 h ([1]; kanosamine 100 μg/ml): 0.7
- Hatching rate higher than in water control ([2]; after seven days): up to 80%
- % Hatching after 7 days ([2]; kanosamine 1 μg/ml): 35.9 ± 5.2%
- % Hatching after 14 days ([2]; kanosamine 1 μg/ml): 40.1 ± 6.8%
- % Hatching after 7 days ([2]; kanosamine 10 μg/ml): 39.4 ± 3%
- % Hatching after 14 days ([2]; kanosamine 10 μg/ml): 42.1 ± 12.1%
- % Hatching after 7 days ([2]; kanosamine 100 μg/ml): 32.4 ± 4.8%
- % Hatching after 14 days ([2]; kanosamine 100 μg/ml): 41.6 ± 6.8%
- Mean percent of SCRW larvae on treated portion of the filter paper ([3]; kanosamine 10 μg/ml): 16.67%
- Mean percent of SCRW larvae on untreated portion of the filter paper ([3]; kanosamine 10 μg/ml): 83.33%
- Mean percent of SCRW larvae on treated portion of the filter paper [3, 7]: 16.67%
- Mean percent of SCRW larvae on untreated portion of the filter paper [3, 7]: 83.33%
- Repellent effects on SCRW ([3]; all dilution rates between 0.1 μg/ml and 100.0 μg/ml, at 24 h, two separate bioassays): repellent effects
- Feeding damage on corn ([3]; at 3 d, choice assay): minimal feeding damage
- Repellency to SCRW ([3]; second test, filter paper treated with 30.0 ug/ml, out to 5 days): complete repellency
- Avoidance response of SCRW ([3]; treated filter paper at 10 and 100 μg/ml): 80%

Molecule: CC(=O)O [Acetic Acid]
- Cf (chemotaxis factor) at 3 h ([1]; acetic acid 1%): 0.45
- Cf (chemotaxis factor) at 5 h ([1]; acetic acid 1%): 0.4
- Cf (chemotaxis factor) at 2 h ([1]; acetic acid 1%, data not shown): neutral

Molecule: abamectin
- % Hatching after 7 days ([2]; abamectin 0.1 ppm): 24.4 ± 2.9%
- % Hatching after 14 days ([2]; abamectin 0.1 ppm): 27.8 ± 5.7%
- % Hatching after 7 days ([2]; abamectin 1.0 ppm): 4.9 ± 0.9%
- % Hatching after 14 days ([2]; abamectin 1.0 ppm): 8.5 ± 1.6%
- Egg hatching inhibition ([2]; rate of 1 ppm, after 14 days): 72%
- Reduction in lesion nematode numbers per root (lesion nematode; soil drench, RTI545 2.5×10^11 CFU/ha): 95%
- % Reduction of cysts [4, 8]: 79%
- Number of cysts extracted [4, 8]: 31
- % Reduction of cysts [4, 9]: 96%
- Number of cysts extracted [4, 9]: 7

Molecule: Cc1c(COC(=O)[C@@H]2[C@H](/C=C(\Cl)C(F)(F)F)C2(C)C)cccc1-c1ccccc1 (racemic) [Bifenthrin]
- % Yield Increase [5]: 5%
- % Damage reduction, Heavy CRW Pressure [6]: 45%
- % Yield Increase, Heavy CRW Pressure [6]: 11%
- % Damage reduction [6]: 42%
- % Yield Increase [6]: 4%

Molecule: Cc1c(F)c(F)c(COC(=O)[C@@H]2[C@H](/C=C(\Cl)C(F)(F)F)C2(C)C)c(F)c1F (racemic) [Tefluthrin]
- % Yield Increase [5]: 5%
- % Damage reduction, Heavy CRW Pressure [6]: 52%
- % Yield Increase, Heavy CRW Pressure [6]: 16%
- % Damage reduction [6]: 46%
- % Yield Increase [6]: 3%

Molecule: CCOP(=O)(SC(C)CC)SC(C)CC (stereo not shown) [cadusafos]
- Reduction in nematode numbers per root (lesion nematode; soil drench to greenhouse pots, eggs and adults 2000 individuals/pot, RTI545 2.5×10^13 CFU/ha): 86%
